± gives the standard deviation of the averaged measurements.
Legend:
Assay in all cases: relative cell number vs DMSO control (72 h) (% of DMSO); higher = less growth inhibition (more cells)
Conditions in all cases: sgRNA knockout: sgNT
MDA-MB-231 = tested on: MDA-MB-231
Protocol: (§1)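 QMAP-Seq: a pool of 5 breast cancer cell lines (ZR-75-1, SKBR3, HCC-38, MDA-MB-231, BT-20), each carrying 12 doxycycline-inducible Cas9 sgRNA perturbations (11 knockouts plus non-targeting sgNT), was treated with compounds for 72 h at four 10-fold doses (10 nM-10 uM or 1 nM-1 uM range). Barcodes were amplified and sequenced, and cell number was interpolated from 293T spike-in standard curves. The result is expressed as % of the median of DMSO wells. Two biological replicates.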

SKBR3 = tested on: SKBR3
Protocol: as §1

HCC-38 = tested on: HCC-38
Protocol: as §1

BT-20 = tested on: BT-20
Protocol: as §1

ZR-75-1 = tested on: ZR-75-1
Protocol: as §1

Row | SMILES | relative cell number (MDA-MB-231; 10 nM) | relative cell number (MDA-MB-231; 100 nM) | relative cell number (MDA-MB-231; 1000 nM) | relative cell number (MDA-MB-231; 10000 nM) | relative cell number (SKBR3; 10 nM) | relative cell number (SKBR3; 100 nM) | relative cell number (SKBR3; 1000 nM) | relative cell number (SKBR3; 10000 nM) | relative cell number (HCC-38; 10 nM) | relative cell number (HCC-38; 100 nM) | relative cell number (HCC-38; 1000 nM) | relative cell number (HCC-38; 10000 nM) | relative cell number (BT-20; 10 nM) | relative cell number (BT-20; 100 nM) | relative cell number (BT-20; 1000 nM) | relative cell number (BT-20; 10000 nM) | relative cell number (ZR-75-1; 10 nM) | relative cell number (ZR-75-1; 100 nM) | relative cell number (ZR-75-1; 1000 nM) | relative cell number (ZR-75-1; 10000 nM)
1 | CC(C)C[C@H](NC(=O)CNC(=O)c1cc(Cl)ccc1Cl)B(O)O [MLN2238] | 94.1 ± 17 | 65.3 ± 5 | 8.44 ± 0.14 | 4.72 ± 0.16 | 87.5 ± 27 | 54.1 ± 9.5 | 9.25 ± 0.68 | 2.47 ± 0.24 | 91.7 ± 16 | 50.2 ± 2.5 | 5.9 ± 0.86 | 4.82 ± 1.7 | 85.1 ± 6.1 | 91 ± 27 | 40.2 ± 3.5 | 15 ± 6.4 | 93.7 ± 33 | 81.4 ± 28 | 17.8 ± 7.5 | 10.9 ± 8
2 | C[C@@H]1CN(CC(=O)Nc2ccc3c(c2)Cc2cccc(-c4cc(=O)cc(N5CCOCC5)o4)c2S3)C[C@H](C)O1 | 111 ± 4.9 | 85.1 ± 5.2 | 95.9 ± 20 | 59.4 ± 6.4 | 86.5 ± 26 | 95.9 ± 33 | 87.7 ± 36 | 33.6 ± 4.6 | 89.9 ± 3.7 | 110 ± 4.4 | 76.9 ± 3.3 | 64.3 ± 9.2 | 73.7 ± 24 | 119 ± 3.5 | 108 ± 8.4 | 62.4 ± 3.5 | 95.6 ± 6 | 92.7 ± 26 | 80.8 ± 9.4 | 38.7 ± 11
3 | C=CC[C@@H]1/C=C(\C)C[C@H](C)C[C@H](OC)[C@H]2O[C@@](O)(C(=O)C(=O)N3CCCC[C@H]3C(=O)O[C@H](/C(C)=C/[C@@H]3CC[C@@H](O)[C@H](OC)C3)[C@H](C)[C@@H](O)CC1=O)[C@H](C)C[C@@H]2OC [Tacrolimus] | 133 ± 27 | 106 ± 7.6 | 96.7 ± 7 | 135 ± 12 | 108 ± 22 | 90.6 ± 11 | 101 ± 17 | 128.1 ± 0.39 | 117 ± 8.4 | 99.57 ± 0.7 | 115 ± 14 | 114 ± 5.7 | 110 ± 2.2 | 105 ± 4.6 | 101 ± 16 | 120 ± 26 | 108 ± 7.9 | 91.5 ± 29 | 85.6 ± 18 | 92.8 ± 28
4 | Cc1cc2c(F)c(Oc3ncnn4cc(OC[C@@H](C)O)c(C)c34)ccc2[nH]1 [Brivanib] | 107 ± 31 | 106 ± 25 | 122 ± 9.6 | 58.7 ± 9.5 | 112 ± 6.1 | 61.5 ± 12 | 82.4 ± 11 | 60.9 ± 28 | 96.9 ± 6.4 | 84.3 ± 9.9 | 96.7 ± 2.2 | 84.119 ± 0.073 | 119 ± 35 | 78.5 ± 1.6 | 109 ± 18 | 93.9 ± 4 | 86.5 ± 18 | 66.1 ± 24 | 111 ± 19 | 53.5 ± 20
5 | O=C(Cc1ccc(-c2ccc(OCCN3CCOCC3)cc2)cn1)NCc1ccccc1 [KX2391] | 108 ± 56 | 30.3 ± 9.2 | 18 ± 2.3 | 19.78 ± 0.15 | 91.5 ± 17 | 17.8 ± 2 | 8.71 ± 3 | 10.3 ± 2.5 | 139 ± 16 | 24.4 ± 0.93 | 24.1 ± 1.9 | 30.8 ± 3.4 | 127 ± 31 | 36.5 ± 7.8 | 33.3 ± 7 | 31.8 ± 10 | 132 ± 43 | 24.8 ± 2.5 | 24.6 ± 4.9 | 17.8 ± 8.4
6 | Cc1cn(-c2cc(NC(=O)c3ccc(C)c(Nc4nccc(-c5cccnc5)n4)c3)cc(C(F)(F)F)c2)cn1 [Nilotinib] | 80.9 ± 6.4 | 118 ± 19 | 88.1 ± 1.5 | 63.5 ± 28 | 79.5 ± 24 | 88.7 ± 0.9 | 98.3 ± 25 | 13.8 ± 12 | 93.4 ± 2.5 | 102 ± 16 | 98.8 ± 11 | 93.7 ± 30 | 99.6 ± 18 | 87.1 ± 14 | 94.2 ± 22 | 63.1 ± 6.3 | 75.2 ± 1.9 | 94.4 ± 29 | 107 ± 2.8 | 35.1 ± 20
7 | CC(C)OC(=O)C1=CN(C(=O)c2ccc(F)c(F)c2)CC(C)(C)c2c1[nH]c1ccccc21 | 86.2 ± 4.9 | 72.1 ± 4.9 | 83.4 ± 6.3 | 130 ± 24 | 81.3 ± 2.4 | 98.8 ± 33 | 77.9 ± 12 | 89.9 ± 24 | 94.8 ± 12 | 89.2 ± 8.8 | 95.2 ± 4.8 | 90.8 ± 6 | 98.9 ± 6.3 | 70 ± 5.8 | 105 ± 24 | 99.6 ± 25 | 119 ± 27 | 123 ± 59 | 101 ± 44 | 102 ± 58
8 | Cc1cc(C2CCCCC2)n(O)c(=O)c1 [Ciclopirox] | 112 ± 16 | 125 ± 41 | 49.1 ± 5.4 | 20.4 ± 5.6 | 105 ± 24 | 83.3 ± 22 | 86.9 ± 17 | 17.3 ± 9.5 | 88.3 ± 8.2 | 93.6 ± 11 | 77.4 ± 3.9 | 13.6 ± 2.9 | 96.4 ± 11 | 95.2 ± 19 | 65.7 ± 2.8 | 25.2 ± 7.7 | 112 ± 34 | 93.9 ± 19 | 41.4 ± 1.6 | 18.3 ± 1.6
9 | Nc1ncn([C@H]2C[C@H](O)[C@@H](CO)O2)c(=O)n1 [Decitabine] | 83 ± 13 | 78.2 ± 10 | 31.2 ± 4.4 | 19.9 ± 0.36 | 104 ± 76 | 68.3 ± 37 | 55.4 ± 22 | 45.9 ± 16 | 98.2 ± 27 | 80.8 ± 14 | 49.3 ± 4.6 | 35.6 ± 3.4 | 92.6 ± 11 | 83 ± 5.8 | 75.7 ± 17 | 50.5 ± 15 | 119 ± 23 | 54.9 ± 30 | 51.2 ± 7.2 | 40.4 ± 17
10 | O=C(/C=C/c1ccc(O)cc1)c1ccc(O)cc1O [Isoliquiritigenin] | 87.3 ± 22 | 75.5 ± 23 | 87 ± 3 | 88 ± 26 | 83.1 ± 20 | 109 ± 30 | 82.7 ± 16 | 68.9 ± 8.6 | 96.1 ± 6.6 | 92.5 ± 6.5 | 96.7 ± 11 | 86.5 ± 9.8 | 113 ± 12 | 95.4 ± 25 | 80.4 ± 11 | 94.9 ± 1.9 | 120 ± 22 | 88 ± 10 | 99.8 ± 30 | 83.9 ± 5.5
11 | Cc1ncc([N+](=O)[O-])n1CC(O)CCl (stereo not given) [Ornidazole] | 103.6 ± 0.42 | 108 ± 7.5 | 74.3 ± 12 | 138 ± 14 | 70.1 ± 3.7 | 102 ± 12 | 91.3 ± 26 | 104 ± 29 | 84.2 ± 8.7 | 88.1 ± 7.5 | 114 ± 19 | 97.7 ± 13 | 103 ± 7.7 | 81.8 ± 1.3 | 96.5 ± 6.5 | 104 ± 17 | 95 ± 18 | 76.4 ± 24 | 121 ± 71 | 84.3 ± 25
12 | c1ccc2c(Oc3nc(Nc4ccc(N5CCOCC5)cc4)c4ncn(C5CCCCC5)c4n3)cccc2c1 [Purmorphamine] | 95.7 ± 9.6 | 75.6 ± 12 | 97 ± 66 | 52 ± 8.8 | 96.9 ± 34 | 124 ± 43 | 75.9 ± 29 | 51.1 ± 11 | 99.2 ± 3.6 | 95.6 ± 7.1 | 90.2 ± 1.9 | 71.8 ± 6.4 | 84.2 ± 13 | 99.65 ± 0.55 | 85.43 ± 0.29 | 79.3 ± 11 | 97.6 ± 49 | 84.6 ± 39 | 92.7 ± 11 | 52.3 ± 1.9
